Measurements as given in US20100113436A1, “DISPIRO TETRAOXANE COMPOUNDS AND THEIR USE IN THE TREATMENT OF MALARIA AND/OR CANCER” (priority 2006, published 2010).
Like-named read-outs stand apart in the source and are kept apart here.

Experiments:
[1] = system: 3D7 strain of Plasmodium falciparum; assay: In vitro antimalarial activity, 48-h [3H]-hypoxanthine incorporation assay; assay type: cell-based
Protocol: The 3D7 strain of Plasmodium falciparum was used in this study. This strain is known to be […] Parasites were maintained in continuous culture using the method of Jensen and Trager^4. […] Stock drug solutions were prepared in 100% dimethylsulphoxide (DMSO) and diluted to the appropriate concentration using complete medium. Assays were performed in sterile 96-well microlitre plates, each plate contained 200 μl of parasite culture (2% parasitemia, 0.5% haematocrit) with or without 10 μl drug dilutions. Each drug was tested in triplicate and parasite growth compared to control wells (which constituted 100% parasite growth). […] IC50 values were calculated by interpolation of the probit transformation of the log dose-response curve.

[2] = 3D7, sulfonamide dispiro 1,2,4,5-tetraoxanes, Table 8, read-out: Mean IC50
[3] = 3D7, 3D7 strain, mean of triplicate results, Table 5, read-out: Mean IC50

SMILES	IC50 [1, 2]	melting point	IC50 [1, 3]	also measured
CCS(=O)(=O)N1CCC2(CC1)OOC1(CCCCCCCCCCC1)OO2 [Tetraoxane 40b]	29.1 nM	–	–	–
O=C(CC1CCC2(CC1)OOC1(OO2)C2CC3CC(C2)CC1C3)NCCN1CCCC1 (stereo not shown) [Tetraoxane 29d]	–	142 to 144 °C	–	–
O=C1CCC2(CC1)OOC1(OO2)C2CC3CC(C2)CC1C3 [Tetraoxane 12, adamantane tetraoxane ketone]	–	156 to 158 °C	–	–
CCS(=O)(=O)N1C2CCC1CC1(C2)OOC2(OO1)C1CC3CC(C1)CC2C3 (stereo not shown) [Tetraoxane 41d, Tropinone derived 1,2,4,5-tetraoxane]	60.6 nM	–	–	–
O=C(CC1CCC2(CC1)OOC1(CCCCC1)OO2)NCCN1CCCCC1 [Tetraoxane 27e, N-(2-Piperidin-1-yl-ethyl)-2-(7,8,15,16-tetraoxa-dispiro[5.2.5.2]-hexadec-3-yl)-acetamide]	–	68 to 78 °C	19.2 nM	–
O=C(CC1CCC2(CC1)OOC1(CCCCCCCCCCC1)OO2)N1CCS(=O)(=O)CC1 [Tetraoxane 31, 1-(1,1-Dioxo-1λ^6-thiomorpholin-4-yl)-2-(7,8,21,22-tetraoxa-dispiro[5.2.11.2]docos-3-yl)-ethanone]	–	170 to 172 °C	92.6 nM	–
O=S(=O)(c1ccccc1)N1CCC2(CC1)OOC1(CCCCCCCCCCC1)OO2 [Tetraoxane 40d]	131 nM	–	–	–
C1CCC2(CC1)OOC1(CCC(NC3CC3)CC1)OO2 [Tetraoxane 14, Cyclopropyl-(7,8,15,16-tetraoxa-dispiro[5.2.5.2]hexadec-3-yl)-amine]	–	–	20 nM	–
O=C1CCC2(CC1)OOC1(CCCCCCCCCCC1)OO2 [Tetraoxane 11, 7,8,21,22-Tetraoxa-dispiro[5.2.11.2]docosan-3-one]	–	108 to 110 °C	–	–
O=C(CC1CCC2(CC1)OOC1(CCCCCCCCCCC1)OO2)N1CCOCC1 [Tetraoxane 28h, 1-Morpholin-4-yl-2-(7,8,21,22-tetraoxa-dispiro[5.2.11.2]docos-3-yl)-ethanone]	–	118 to 120 °C	23.7 nM	–
O=C(N1CCCCC1)N1CCC2(CC1)OOC1(CCCCC1)OO2 [Tetraoxane 34k]	–	–	–	IC50 ([1]; 3D7, read-out: Mean IC50): 7 nM
O=C(CC1CCC2(CC1)OOC1(OO2)C2CC3CC(C2)CC1C3)N1CCSCC1 (stereo not shown) [Tetraoxane 29i, Tetraoxa-dispiro-(adamantly)-thiomorpholin-4-yl-ethanone]	–	150 to 152 °C	5.9 nM	–
O=C(CC1CCC2(CC1)OOC1(CCCCC1)OO2)NCCN1CCCC1 [Tetraoxane 27d, N-(2-Pyrrolidin-1-yl-ethyl)-2-(7,8,15,16-tetraoxa-dispiro[5.2.5.2]-hexadec-3-yl)-acetamide]	–	110 to 112 °C	19.1 nM	–
CS(=O)(=O)N1CCC2(CC1)OOC1(OO2)C2CC3CC(C2)CC1C3 [Tetraoxane 39a]	10.2 nM	–	–	–
C[C@@H]1CC[C@H]2[C@@H](C)C(=O)O[C@@H]3O[C@@]4(C)CC[C@@H]1[C@]32OO4 [Artemisinin, reference compound]	9.2 nM	–	9.5 nM	–
O=C1CCN(C(=O)N2CCOCC2)CC1 [Tetraoxane 34f, 1-(Morpholine-4-carbonyl)-piperidin-4-one]	–	–	–	IC50 ([1]; 3D7, read-out: Mean IC50): 4.7 nM
O=S(=O)(c1ccc(Cl)cc1)N1CCC2(CC1)OOC1(OO2)C2CC3CC(C2)CC1C3 [Tetraoxane 39h]	22.7 nM	–	–	–
O=C1CCC2(CC1)OOC1(CCCCC1)OO2 [Tetraoxane 10, 7,8,15,16-Tetraoxa-dispiro[5.2.5.2]hexadecan-3-one]	–	78 to 80 °C	6 nM	–
O=C(N1CCCCC1)N1CCC(OO)(OO)CC1 [Tetraoxane 34i, (4,4-dihydroperoxypiperidin-1-yl)(piperidin-1-yl)methanone]	–	–	–	IC50 ([1]; 3D7, read-out: Mean IC50): 7.2 nM

SMILES	IC50 [1, 2]	melting point	IC50 [1, 3]	also measured
O=S(=O)(CC(F)(F)F)N1CCC2(CC1)OOC1(OO2)C2CC3CC(C2)CC1C3 [Tetraoxane 39e]	14.3 nM	–	–	–
O=C(CC1CCC2(CC1)OOC1(OO2)C2CC3CC(C2)CC1C3)NCCN1CCCCC1 (stereo not shown) [Tetraoxane 29e, N-(2-Piperidin-1-yl-ethyl)-[adamantyl]acetamide]	–	119 to 121 °C	–	–
O=C(CC1CCC2(CC1)OOC1(CCCCCCCCCCC1)OO2)NCCN1CCOCC1 [Tetraoxane 28f, N-(2-Morpholin-4-yl-ethyl)-2-(7,8,21,22-tetraoxa-dispiro[5.2.11.2]do-cos-3-yl)-acetamide]	–	78 to 80 °C	–	–
CC(C)S(=O)(=O)N1CCC2(CC1)OOC1(CCCCCCCCCCC1)OO2 [Tetraoxane 40c]	86.4 nM	–	–	–
O=C(CC1CCC2(CC1)OOC1(CCCCCCCCCCC1)OO2)N1CCSCC1 [Tetraoxane 28i, 2-(7,8,21,22-Tetraoxa-dispiro[5.2.11.2]docos-3-yl)-1-thiomorpholin-4-yl-ethanone]	–	108 to 110 °C	26.9 nM	–
O=C(CC1CCC2(CC1)OOC1(OO2)C2CC3CC(C2)CC1C3)N1CCCCC1 (stereo not shown) [Tetraoxane 29m]	–	–	0.5 nM	–
CCOC(=O)CC1CCC2(CC1)OOC1(CCCCC1)OO2 [Tetraoxane 27a, (7,8,15,16-Tetraoxa-dispiro[5.2.5.2]hexadec-3-yl)acetic acid ethyl ester]	–	–	24.2 nM	–
O=C(CC1CCC2(CC1)OOC1(CCCCC1)OO2)NCCN1CCOCC1 [Tetraoxane 27f, N-(2-Morpholin-4-yl-ethyl)-2-(7,8,15,16-tetraoxa-dispiro[5.2.5.2]-hexadec-3-yl)-acetamide]	–	–	19.1 nM	–
O=S(=O)(c1ccc(C(F)(F)F)cc1)N1CCC2(CC1)OOC1(OO2)C2CC3CC(C2)CC1C3 [Tetraoxane 39i]	20.7 nM	–	–	–
O=C(CC1CCC2(CC1)OOC1(CCCCCCCCCCC1)OO2)NCCN1CCCC1 [Tetraoxane 28d, N-(2-Pyrrolidin-1-yl-ethyl)-2-(7,8,21,22-tetraoxa-dispiro[5.2.11.2]do-cos-3-yl)-acetamide]	–	108 to 110 °C	–	–
COC(=O)[C@@H](NC(=O)CC1CCC2(CC1)OOC1(OO2)C2CC3CC(C2)CC1C3)C(C)C (stereo in doubt) [Tetraoxane 29j, Adamantyl acetamide]	–	108 to 110 °C	–	–
CCN(CC)CCNC(=O)CC1CCC2(CC1)OOC1(CCCCC1)OO2 [Tetraoxane 27g, N-(2-Diethylamino-ethyl)-2-(7,8,15,16-tetraoxa-dispiro[5.2.5.2]-hexadec-3-yl)-acetamide]	–	–	5.15 nM	–
CC(C)CN1CCN(C(=O)CC2CCC3(CC2)OOC2(OO3)C3CC4CC(C3)CC2C4)CC1 (stereo not shown) [Tetraoxane 29s]	–	–	2.7 nM	–
CCN(CC)CCNC(=O)CC1CCC2(CC1)OOC1(CCCCCCCCCCC1)OO2 [Tetraoxane 28g, N-(2-Diethylamino-ethyl)-2-(7,8,21,22-tetraoxa-dispiro[5.2.11.2]-docos-3-yl)-acetamide]	–	64 to 66 °C	–	–
O=C(CC1CCC2(CC1)OOC1(CCCCCCCCCCC1)OO2)NCCN1CCCCC1 [Tetraoxane 28e, N-(2-Piperidin-1-yl-ethyl)-2-(7,8,21,22-tetraoxadispiro[5.2.11.2]-docos-3-yl)-acetamide]	–	96 to 98 °C	–	–
CS(=O)(=O)N1CCC2(CC1)OOC1(CCCCCCCCCCC1)OO2 [Tetraoxane 40a]	27.8 nM	–	–	–
O=S(=O)(c1ccc(F)cc1)N1CCC2(CC1)OOC1(OO2)C2CC3CC(C2)CC1C3 [Tetraoxane 39g]	16.7 nM	–	–	–
C1CCC2(CC1)OOC1(CCC(N3CCOCC3)CC1)OO2 [Tetraoxane 19, 4-(7,8,15,16-Tetraoxa-dispiro[5.2.5.2]hexadec-3-yl)-morpholine]	–	–	29.4 nM	–
CC(C)S(=O)(=O)N1CCC2(CC1)OOC1(OO2)C2CC3CC(C2)CC1C3 [Tetraoxane 39c]	5.87 nM	–	–	–
